What was measured:
[1] = tested on: Staphylococcus aureus ATCC 6538; experiment: germicidal efficiency test (modified serial dilution; time to complete sterilization), Table A; format: cell-based; conditions: 473 ppm +Cl, pH 7.0
Experimental: The compounds are thus useful as bactericidal agents.
(§1) The compounds of the invention and certain reference compounds were tested in the germidical efficiency test, a modification of the standard serial dilution test, against Staphylococcus aureus ATCC 6538. In the germicidal efficiency test, instead of determining the minimum inhibitory concentration as in the serial dilution test procedure, the time required to effect complete sterilization of the micro-organism when exposed to a given concentration of the test substance is determined. This procedure affords a basis of comparison of the time dependent efficacies of the various test substances which gives a measure not only of the germidical efficacy of the test species but, since as will be seen germicidal efficiency of the N-chloro compounds generally tends to diminish with time, apparently owing to decomposition of, and therefore dilution of, the active species, the test procedure also provides an indication of the efficacy to be expected at varying time intervals after solution of the test species in the application medium. The test procedure is described as follows: A stock solution of known concentration of each compound to be tested was prepared in 0.1M sodium dihydrogen phosphate buffered to pH 7.0. To 5 ml. of the test solution was added 0.2 ml. of an overnight broth culture containing from 6×10^6 to 8×10^6 organisms/ml. of Staphylococcus aureus ATCC 6538 and 5 g. of gelysate peptone and 3 g. of beef extract per 1000 ml. of water. At time intervals of 0.5, 1, 2, 3, 4, 5, 6, 7, 8, 9, 10, 15 and 30 minutes, a loop of this suspension was subcultured into 5 ml. of sterile nutrient broth (5 g. of gelysate peptone and 3 g. of beef extract/1000 ml. of water), and the samples were incubated at 37° C. for 7 days with daily observation for evidence of bacterial growth. The time interval in which no bacterial growth was observed after the incubation period in a particular sample was recorded as the end point.
(§2) The germicidal kill times so-obtained at various concentrations of the compounds of the invention and of certain reference compounds are given in Table A below. The compounds are identified in each case by the Example number above where the compounds are described. Here and elsewhere in the specification that follows, concentrations are expressed in parts per million (ppm) of "positive" chlorine, which was determined in each instance by addition of excess aqueous potassium iodide to an acidified solution of the test compound and titration of the iodine liberated with standard sodium thiosulfate solution.

[2] = tested on: Staphylococcus aureus ATCC 6538; experiment: contact germicidal (bactericidal) time before and after 14 day incubation of solutions at 40° C., Table B; format: cell-based; conditions: pH 7.0
Experimental: as §1
(§3) The stabilities and the time-dependent efficacies of the claimed and reference species were determined by comparing the contact germicidal times and the initial and final concentrations of positive chlorine in solutions of the test species in 0.1M sodium dihydrogen phosphate buffered to pH 7.0 before and after 14 day incubation of the solutions at 40° C. The results are given in Table B below, where the columns headed "Bc Time" refers to the bactericidal time in minutes.

[3] = positive chlorine concentration before and after 14 day incubation of solutions at pH 7.0, 40° C., Table B; format: physicochemical
Experimental: as §2, §3

[4] = hydrolytic stability in 0.1M sodium dihydrogen phosphate pH 7.0 at 40° (first-order kinetics), Table C; format: physicochemical
Experimental: A further measure of the relative stabilities of the reference and claimed species was obtained by measuring the hydrolytic stability of the various species in 0.1M sodium dihydrogen phosphate buffered to pH 7.0 at 40°. For each species, the rate of change in the concentration of positive chlorine in the solution was measured by the volume of standard thiosulfate required to titrate a series of aliquots of a standard volume of the solution at various time intervals using potassium iodide/sodium thiosulfate as detailed above. The volumes of thiosulfate required to titrate each sample so obtained were interpreted as first-order kinetic processes. The hydrolytic stabilities of the reference and claimed species under the experimental conditions were characterized by the reaction rate constants and half-lives obtained from a linear regression analysis of the experimental data. The results obtained are given in Table C below and are also shown in FIG. 1 where the volumes in milliliters of standard thiosulfate required to titrate the positive chlorine in the various samples are plotted as ordinate against time in days as abscissa.

[5] = stability in the neat state (% chlorine by iodometric titration), Table D; format: physicochemical; conditions: 40° C.
Experimental: In those instances, the data were acquired at ambient temperature (approximately 23° C.). The method used was similar to that described above in which the rate of disappearance of "positive" chlorine was followed iodometrically by titration of iodine liberated from added potassium iodide with standard sodium thiosulfate solution. Samples of the compounds were individually sealed in ampoules and stored in the dark at 23° C. or 40° C. and weighed amounts removed from time to time for analysis.
For each of the compounds analyzed as indicated above, percent chlorine was plotted as ordinate against time in days as abscissa on semi-logarithmic paper and the points connected by a smooth curve for each compound.

**Q.** Which “Bactericidal Time” value [1] does the source give for `CC1(C)CN(Cl)C(=O)O1` [Example 1G, 3-Chloro-5,5-dimethyl-2-oxazolidinone] here?
**A.** 7 min

**Q.** What about the “bactericidal activity after the test period (in words)” value ([2]; after 14 days at 40° C.) of the same molecule?
**A.** retained a good measure of bactericidal activity superior to each of the reference species

**Q.** And the “Bc Time, initial” value ([2]; before incubation, at initial ppm +Cl of the same line)?
**A.** 7 min

**Q.** What about the “decomposition over the test period (in words)” value ([3]; 14 days, 40° C., pH 7.0) of the same molecule?
**A.** substantially decomposed over the test period

**Q.** And the “Final Concn. of positive chlorine” value ([3]; after 14 day incubation at 40° C., 0.1M phosphate pH 7.0)?
**A.** 43 ppm +Cl

**Q.** What about the “Initial Concn. of positive chlorine” value ([3]; before incubation, 0.1M phosphate pH 7.0) of the same molecule?
**A.** 473 ppm +Cl

**Q.** And the half-life ([4]; 0.1m phosphate buffer, hydrolysis, 0.1M phosphate pH 7.0, 40°)?
**A.** 86.6 h

**Q.** What about the “Rate Constant k” value ([4]; hydrolysis, first-order, 0.1M phosphate pH 7.0, 40°) of the same molecule?
**A.** 0.008 h⁻¹

**Q.** And the “half-life relative to the half-lives of the reference species” value ([4]; hydrolysis, pH 7.0, 40°)?
**A.** around twice to eight times as great

**Q.** And the “hydrolytic stability (in words)” value ([4]; pH 7.0, 40°)?
**A.** somewhat less stable than the corresponding 4,4-dimethyl compound

**Q.** And the “% Cl, neat” value ([5]; 0 Days)?
**A.** 19.6%

**Q.** What about the “% Cl, neat” value ([5]; 1 Day) of the same molecule?
**A.** 22.1%

**Q.** And the “% Cl, neat” value ([5]; 4 Days)?
**A.** 23.7%

**Q.** And the “% Cl, neat” value ([5]; 7 Days)?
**A.** 16.5%

**Q.** And the “% Cl, neat” value ([5]; 11 Days)?
**A.** 18.1%

**Q.** What about the “% Cl, neat” value ([5]; 15 Days) of the same molecule?
**A.** 14.4%

**Q.** What about the “% Cl, neat” value ([5]; 19 Days) of the same molecule?
**A.** 10.0%

**Q.** And the “% Cl, neat” value ([5]; 22 Days)?
**A.** 0%

**Q.** And the “stability in the neat state (in words)” value ([5]; neat)?
**A.** surprising stability

Source: patent US4000293A, “Method of inhibiting bacterial growth with certain selected 3-chloro-2-oxazolidinones” (Interx Research Corporation, priority 1975, dated 1976)
